Where two headings read alike, the source gives them in different places.
Key:
[1] = system: murine heart; assay: Short-term application in mice: histology of cardiac cross-sections; assay type: in vivo; conditions: oral once or twice a day, 5 consecutive days
Description: The compound (Medchemexpress) was dissolved in 5% DMSO, 40% PEG300, 5% Tween-80 in isotonic saline solution and administered either via oral gavage or by injection into the tail vein. Control animals received the same solution without compound. Heart cross-sections (2-chamber view) were fixed in Roti Histofix (Roth, P087.5) and dehydrated in ethanol. After paraffin embedding, slices of 6µm thickness were cut and used for Hematoxylin/Eosin and Masson’s trichrome staining. Imaging was performed on a Zeiss Axioscan 7. For analysis, 10 snapshots of fixed dimension were taken per animal and the percentage of fibrotic tissue was assessed based on color threshold using ImageJ.

[2] = Single-dose pharmacokinetics in mice: tissue levels (heart, liver, kidney, skeletal muscle) by UPLC-MS/MS; assay type: in vivo; conditions: for concentration at 1 h: po, 100 mg/kg, oral 100 mg/kg, peak (1 h)
Description: (§1) All animal studies were approved by and conducted in accordance with the German Animal Welfare Act and approved by the Animal Experiment Review Board of the Regierungspräsidium Karlsruhe, Germany. The study refers to the application […]-19. C57BL/6N mice were purchased from Charles River at the age of 12 weeks. Male and female mice were included in an equal ratio. The compound (Medchemexpress) was dissolved in 5% DMSO, 40% PEG300, 5% Tween-80 in isotonic saline solution and administered either via oral gavage or by injection into the tail vein. Control animals received the same solution without compound. […] Tissue samples were homogenized in water using a Bead Ruptor 4 homogenizer (Omni International Inc, USA) for at least 120 s with ceramic beads. After protein precipitation with acetonitrile, plasma and tissue sample extracts were measured using an UPLC-MS/MS (Waters, USA) setup including an Acquity UPLC I-Class® coupled with a Xevo TQ-S triple stage quadrupole mass spectrometer (Waters), which featured a heated ESI source (Z-Spray in the positive MRM mode). Gradient chromatography was conducted using an ACQUITY UPLC BEH C18 column (130 Å, 1.7 μm, 2.1 mm × 50 mm; Waters, USA) consisting of eluent A (95/5 H2O/ACN with 0.1% formic acid) and eluent B (ACN with 0.1% formic acid).

[3] = system: murine heart; assay: PRMT5i combined with O-ring aortic banding (ORAB)/sham surgery: echocardiography; assay type: in vivo; conditions: mice, 56 days combined with ORAB/sham surgery
Description: The compound (Medchemexpress) was dissolved in 5% DMSO, 40% PEG300, 5% Tween-80 in isotonic saline solution and administered either via oral gavage or by injection into the tail vein. Control animals received the same solution without compound. Cardiac performance was determined by transthoracic echocardiography. Measurements on conscious mice were performed using a Vevo® 2100 system with a 55 MHz transducer (Visualsonics). Ejection fraction (EF) was averaged over at least 5 contraction cycles. The experimenter was blinded for genotype and treatment.

[4] = Single-dose pharmacokinetics in mice: plasma levels by UPLC-MS/MS; assay type: in vivo
Description: as §1

[5] = system: murine heart; assay: Long-term application (8 weeks) in mice: transthoracic echocardiography; assay type: in vivo; conditions: over the course of 8 weeks
Description: (§2) All animal studies were approved by and conducted in accordance with the German Animal Welfare Act and approved by the Animal Experiment Review Board of the Regierungspräsidium Karlsruhe, Germany. The study refers to the application G210-19. C57BL/6N mice were purchased from Charles River at the age of 12 weeks. Male and female mice were included in an equal ratio.
(§3) The compound (Medchemexpress) was dissolved in 5% DMSO, 40% PEG300, 5% Tween-80 in isotonic saline solution and administered either via oral gavage or by injection into the tail vein. Control animals received the same solution without compound.
(§4) Cardiac performance was determined by transthoracic echocardiography. Measurements on conscious mice were performed using a Vevo® 2100 system with a 55 MHz transducer (Visualsonics). Ejection fraction (EF) was averaged over at least 5 contraction cycles. The experimenter was blinded for genotype and treatment.

[6] = system: murine heart; assay: Short-term application (5 consecutive days) in mice: transthoracic echocardiography, survival; assay type: in vivo
Description: as §2, §3, §4

[7] = system: HEK293 cells; assay: PRMT5i-associated cytotoxicity, CellTiter 96 Cell Proliferation Assay; assay type: cell-based; conditions: dosage escalation beyond 10 μM, 48 h exposure
Description: HEK293 cells (ATCC) were cultured in DMEM (PanBiotech) supplemented with 10% FCS (Thermo Fisher) and 1% penicillin-streptomycin (Thermo Fisher) and incubated at standard conditions. Cells between passage 5 and 18 were used for experiments. Neonatal rat ventricular myocytes (NRVMs) were isolated from 24h-to-72h old rats using the Neonatal Heart Dissociation Kit (Miltenyi Biotec) according to manufacturer’s recommendations, cultured in DMEM supplemented with 10% FCS and 1% penicillin-streptomycin and incubated at standard conditions. EPZ015666 and GSK3326595 (MedChemExpress) were dissolved in DMSO and added into the culture medium at indicated dosages. For protein analysis, cells were treated for 96 h including a medium exchange after 48 h. Control cells were treated with DMSO accordingly. Single values in the analysis represent individually treated wells (technical replicates) and experiments were reproduced at least three times using independent cell passages or preparations. […] The treatment was performed in individual wells and absorbance at 570 nm was recorded on an EnSight Plate reader (PerkinElmer).

[8] = system: Myh7 and Nppa expression; assay: PRMT5i combined with ORAB/sham surgery: quantitative PCR of Myh7 and Nppa in left-ventricular tissue; assay type: in vivo; conditions: mice
Description: (§5) The surgical procedure was essentially performed as previously described^20. In brief, animals were narcotized using Isoflurane. The thorax was opened and a nitrile O-ring (inner diameter 0.020 inch) was closed around the aorta ascendens in order to enhance pressure load of the left ventricle. Perisurgically and for the following days, analgesia was maintained via buprenorphine.
1µg of RNA was reverse transcribed (PrimaDIRECT 2x PCR Master Mix Kit (Steinbrenner)) and cDNA was subjected to quantitative PCR on a LightCycler480 (Roche) using SYBR Green Master Mix (Thermo Fisher).
mmMyh7: • For: 5’ AGCATTCTCCTGCTGTTTCCT 3’ • Rev: 5’ CCAGGCCTGTAGAAGAGCTG 3’
mmNppa: • For: 5’ ATTGACAGGATTGGAGCCCAGAGT 3’ • Rev: 5’ TGACACACCACAAGGGCTTAGGAT 3’
mmGapdh: • For: 5’ GGTGGACCTCATGGCCTACA 3’ • Rev: 5’ CTCTCTTGCTCAGTGTCCTTGCT 3’

[9] = system: murine heart; assay: PRMT5i combined with ORAB/sham surgery: histology (fibrosis); assay type: in vivo; conditions: mice
Text: The surgical procedure was essentially performed as previously described^20. In brief, animals were narcotized using Isoflurane. The thorax was opened and a nitrile O-ring (inner diameter 0.020 inch) was closed around the aorta ascendens in order to enhance pressure load of the left ventricle. Perisurgically and for the following days, analgesia was maintained via buprenorphine. Heart cross-sections (2-chamber view) were fixed in Roti Histofix (Roth, P087.5) and dehydrated in ethanol. After paraffin embedding, slices of 6µm thickness were cut and used for Hematoxylin/Eosin and Masson’s trichrome staining. Imaging was performed on a Zeiss Axioscan 7. For analysis, 10 snapshots of fixed dimension were taken per animal and the percentage of fibrotic tissue was assessed based on color threshold using ImageJ.

[10] = system: murine heart; assay: Long-term application in mice: Masson Trichrome histology (fibrosis); assay type: in vivo; conditions: 8 weeks
Description: Heart cross-sections (2-chamber view) were fixed in Roti Histofix (Roth, P087.5) and dehydrated in ethanol. After paraffin embedding, slices of 6µm thickness were cut and used for Hematoxylin/Eosin and Masson’s trichrome staining. Imaging was performed on a Zeiss Axioscan 7. For analysis, 10 snapshots of fixed dimension were taken per animal and the percentage of fibrotic tissue was assessed based on color threshold using ImageJ.

[11] = system: mice; assay: Long-term application in mice: body weight, mortality, heart and lung weight to tibia length; assay type: in vivo; conditions: 8 weeks
Description: as §2, §3

[12] = system: patients; conditions: ref [12], [18]; cited from earlier work
[13] = system: mice; assay: PRMT5i combined with ORAB/sham surgery: mortality; assay type: in vivo; conditions: PRMT5i-treated mice undergoing ORAB
Description: as §3, §5

[14] = system: hematopoiesis; assay: PRMT5i combined with ORAB/sham surgery: blood cell parameters; assay type: in vivo; conditions: mice, chronic PRMT5i with ORAB/sham
Description: The surgical procedure was essentially performed as previously described^20. In brief, animals were narcotized using Isoflurane. The thorax was opened and a nitrile O-ring (inner diameter 0.020 inch) was closed around the aorta ascendens in order to enhance pressure load of the left ventricle. Perisurgically and for the following days, analgesia was maintained via buprenorphine. Hematological parameters were analyzed using an automated hematology analyzer ([…] ABC, ABX Diagnostics, France) according to manufacturer's instructions. Whole blood samples were collected into EDTA-coated tubes to prevent coagulation. The following parameters were determined: red blood cell count (RBC), white blood cell count (WBC), hemoglobin concentration (HGB), mean corpuscular volume (MCV), mean corpuscular hemoglobin (MCH), platelet count (PLT), and differential leukocyte counts.

[15] = system: hematopoiesis; assay: Long-term application in mice: blood cell parameters; assay type: in vivo; conditions: 8 weeks
Description: Hematological parameters were analyzed using an automated hematology analyzer ([…] ABC, ABX Diagnostics, France) according to manufacturer's instructions. Whole blood samples were collected into EDTA-coated tubes to prevent coagulation. The following parameters were determined: red blood cell count (RBC), white blood cell count (WBC), hemoglobin concentration (HGB), mean corpuscular volume (MCV), mean corpuscular hemoglobin (MCH), platelet count (PLT), and differential leukocyte counts.

[16] = system: PRMT5; assay: Immunoblot of global SDMA in neonatal rat ventricular cardiomyocytes; assay type: cell-based; conditions: concentrations up to 50 μM

## CC(=O)N1CCC(Nc2cc(C(=O)NC[C@H](O)CN3CCc4ccccc4C3)ncn2)CC1 [GSK3326595]
[1]
  tissue morphology / fibrotic remodeling: no immediate detrimental effects or fibrotic remodeling
[2]; as worded
  heart targeted by % dosage on average: 19.0%
  muscle tissue targeted by % dosage on average: 26.0%
[2]; as worded in b7, first of 'respectively'
  heart targeted by % dosage on average (versus liver): 26.0%
[2]; as worded in b7, second of 'respectively'
  heart targeted by % dosage on average (versus kidney): 19.0%
[2]; both sexes, C57BL/6N, mouse, heart, read-out: absolute inhibitor concentration in heart
  concentration at 1 h: 82700 ng/g
[2]; both sexes, C57BL/6N, mouse, liver, kidney, heart, skeletal muscle, other: oral (gavage) and intravenous (tail vein), both arms, single dose, read-out: time of maximum levels in liver, kidney, heart and skeletal muscle
  Tmax: 1 h
[2]; both sexes, C57BL/6N, mouse, skeletal muscle, read-out: absolute inhibitor concentration in skeletal muscle
  concentration at 1 h: 172000 ng/g
[3]
  longitudinal echocardiographic analysis: no statistical significance was found for any of the indicated time points in any group comparison
[4]; both sexes, C57BL/6N, mouse, plasma
  half-life: 2.5 h
[4]; both sexes, C57BL/6N, mouse, plasma, po
  bioavailability: 5.7%
[4]; over a course of 12 h
  decline of plasma concentration on average: > 90%
[4]; single dose oral gavage or intravenous
  time of plasma peak concentration post application: 1 h
[5]
  systolic cardiac function: preserved
[6]; oral once or twice a day, 5 consecutive days
  ejection fraction: did not detect changes in ejection fraction
[6]; short-term application, 10 mg/kg
  death during the experiment: one animal (10 mg/kg) that died during the course of the experiment
[7]
  cytotoxicity: significantly less cytotoxicity as compared to EPZ015666
[8]
  expression of cardiac stress markers Myh7 and Nppa: stable expression of classical cardiac stress markers such as Myh7 and Nppa
[9]
  fibrotic remodeling (histology): no significant fibrotic remodeling
[10]
  myocardial fibrosis (Masson Trichrome staining): remained stable
[11]
  heart weight-to-tibia length and lung weight-to-tibia length: did not reveal PRMT5i-induced alterations
  tolerability (body weight, mortality): well tolerated as determined by stable body weight without treatment-associated mortality
[12]
  adverse cardiovascular events in clinical studies: manifested adverse cardiovascular events were not described
[13]
  mortality: delayed mortality starting 2 weeks post-surgery
[14]
  hematology: anemia, leucopenia: significant normocytic normochromic anemia and leucopenia
  platelets: not affected
[15]
  hematology: anemia, lymphopenia: significant anemia and lymphopenia
  platelets counts: unaltered

## O=C(NC[C@H](O)CN1CCc2ccccc2C1)c1cc(NC2COC2)ncn1 [EPZ015666]
[16]
  global SDMA: did not detect a significant reduction of global SDMA

— PMC13594947 (Journal of Molecular and Cellular Cardiology Plus, 2026)
